Reference: patent US12491170B2, “Stable treprostinil prodrugs” (United Therapeutics Corporation, priority 2020, dated 2025)

What was measured:
[1] = Stability in liver microsomes, human
[2] = Stability in liver microsomes, rat
[3] = Stability in cryopreserved hepatocytes, human
[4] = target: prostaglandin E2 (PGE2) receptor 2 (EP2) (Homo sapiens, UniProt P43116); experiment: EP2 receptor cAMP agonist assay (HEK293T cells); assay type: cell-based; settings: summary of findings
Summary of the method: (§1)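 Agonist-mode cAMP accumulation in cells overexpressing the human receptor (DP1 and EP2 in HEK293T, IP in CHO-K1). Compounds were added at varying concentrations with 0.1% DMSO for 20 min at 37 °C, then cAMP was read by TR-FRET. Dose-responses were fitted to variable-slope sigmoidal curves.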

[5] = target: T1, prostaglandin D2 (PGD2) receptor 1 (DP1) (Homo sapiens, UniProt Q13258); experiment: DP1 receptor cAMP agonist assay (HEK293T cells); assay type: cell-based; settings: summary of findings
T1 sequence (Q13258 1-359): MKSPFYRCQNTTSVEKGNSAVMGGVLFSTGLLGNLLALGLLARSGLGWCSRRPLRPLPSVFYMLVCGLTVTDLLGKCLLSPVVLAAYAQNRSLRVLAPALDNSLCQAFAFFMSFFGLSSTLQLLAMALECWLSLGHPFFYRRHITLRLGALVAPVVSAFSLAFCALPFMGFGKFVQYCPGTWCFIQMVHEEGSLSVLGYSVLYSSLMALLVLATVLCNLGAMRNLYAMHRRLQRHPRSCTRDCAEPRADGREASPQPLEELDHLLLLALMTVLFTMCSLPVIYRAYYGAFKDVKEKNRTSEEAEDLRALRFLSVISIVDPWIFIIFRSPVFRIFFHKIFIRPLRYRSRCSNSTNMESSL
Summary of the method: as §1

[6] = Hydrolysis of prodrugs to treprostinil at pH 6, 7, 8 and 40 C; assay type: physicochemical
Description: Tables 24, 25 and 26 present data for hydrolysis of selected treprostinil prodrugs at pH 6, 7 and 8, respectively, and 40 C.

Sequence of prostaglandin E2 (PGE2) receptor 2 (EP2) (P43116 whole entry): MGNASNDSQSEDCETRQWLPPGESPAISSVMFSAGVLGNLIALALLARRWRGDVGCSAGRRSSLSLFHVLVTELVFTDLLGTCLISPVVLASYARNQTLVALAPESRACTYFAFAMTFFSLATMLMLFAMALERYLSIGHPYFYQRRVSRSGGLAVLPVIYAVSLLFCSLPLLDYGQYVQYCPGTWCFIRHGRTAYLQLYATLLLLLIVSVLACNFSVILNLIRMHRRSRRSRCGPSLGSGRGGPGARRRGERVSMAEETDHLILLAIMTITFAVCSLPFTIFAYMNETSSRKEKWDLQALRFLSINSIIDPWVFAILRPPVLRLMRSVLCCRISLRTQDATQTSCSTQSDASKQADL

## treprostinil diacetate [Prodrug LXXII]
[1]
  Trep Concentration 0 min: 0.989 µM
  Trep Concentration 10 min: 0.829 µM
  Trep Concentration 20 min: 0.543 µM
  Trep Concentration 30 min: 0.485 µM
  Trep Concentration 60 min: 0.349 µM
  Treprostinil Concentration 0 min: 0.989 µM
  Treprostinil Concentration 15 min: 0.829 µM
  Treprostinil Concentration 30 min: 0.543 µM
  Treprostinil Concentration 60 min: 0.485 µM
  Treprostinil Concentration 120 min: 0.349 µM
[1]; human
  AUC: 33.6 µmol·min/L
  AUC Mono (treprostinil formed): 33.6 µmol·min/L
[1]; human, microsomes
  CLint: >0.139 mL/min/mg protein
  Half-life: <10 min
[2]
  Trep Concentration 0 min: 0.0413 µM
  Trep Concentration 10 min: 0.095 µM
  Trep Concentration 20 min: 0.182 µM
  Trep Concentration 30 min: 0.19 µM
  Trep Concentration 60 min: 0.216 µM
  Treprostinil Concentration 0 min: 0.0413 µM
  Treprostinil Concentration 15 min: 0.095 µM
  Treprostinil Concentration 30 min: 0.182 µM
  Treprostinil Concentration 60 min: 0.19 µM
  Treprostinil Concentration 120 min: 0.216 µM
[2]; microsomes
  CLint, calculated (in parentheses): 0.144 mL/min/mg protein
  Half-life, calculated (in parentheses): 9.65 min
[2]; rat
  AUC Mono (treprostinil formed): 10.0 µmol·min/L
[2]; rat, microsomes
  CLint: > 0.139 mL/min/mg protein
  Half-life: < 10 min
[3]
  Trep Concentration (μM) 0 min: 0.00458 µM
  Trep Concentration (μM) 15 min: 0.562 µM
  Trep Concentration (μM) 30 min: 0.491 µM
  Trep Concentration (μM) 60 min: 0.433 µM
  Treprostinil Concentration 0 min: 0.00458 µM
[3]; hepatocytes
  CLint, calculated (in parentheses): 0.276 mL/min/mg protein
  Half-life, calculated (in parentheses): 1.67 min
[3]; human
  AUC: 49.92 µmol·min/L
  Mono AUC (treprostinil formed): 49.9 µmol·min/L
[3]; human, hepatocytes
  CLint: > 0.0308 mL/min/mg protein
  Half-life: < 15 min
[4]
  Activity at the EP2 receptor compared to treprostinil: non-traditional dose response curve
[5]
  Activity at the DP1 receptor compared to treprostinil: several hundred-fold less active
[6]; pH 6, 40 C.
  Hydrolysis to treprostinil, % Area, t = 1 week: 0.00 % Area
  Hydrolysis to treprostinil, % Area, t = 2 weeks: 0.00 % Area
  Hydrolysis to treprostinil, % Area, t = 3 weeks: 0.00 % Area
[6]; pH 7, 40 C.
  Hydrolysis to treprostinil, % Area, t = 1 week: 0.00 % Area
  Hydrolysis to treprostinil, % Area, t = 2 weeks: 0.00 % Area
  Hydrolysis to treprostinil, % Area, t = 3 weeks: 0.00 % Area
[6]; pH 8, 40 C.
  Hydrolysis to treprostinil, % Area, t = 1 week: 0.00 % Area
  Hydrolysis to treprostinil, % Area, t = 2 weeks: 0.00 % Area
  Hydrolysis to treprostinil, % Area, t = 3 weeks: 0.00 % Area
